Source: publication PMC2211560 (PLoS Medicine, 2008)
“And” between values parts separate entries of the source, which are not always exact repeats. Equal values may be shown once. Read-outs that look alike come from different tables or passages of the source.

How the values were obtained:
[1] = in vivo
Protocol: Adverse events were evaluated according to the National Cancer Institute Common Toxicity Criteria, version 2 (http://ctep.info.nih.gov/reporting/index.html).
The first three patients were enrolled at the initial dose level of 2 mg per day. After a four week evaluation period for dose limiting toxicity, a minimum of 3 more patients could be enrolled at the next dose level. […] Presurgical dosing included the loading dose followed by the daily maintenance dose until surgery. After the patient recovered from the effects of surgery, identical loading and maintenance doses (e.g., 6 mg and 2 mg, respectively) were administered. […] Assessment of drug safety was done following a routine schedule and supplemented by additional evaluation whenever a patient reported a new symptom. […] Toxicities were graded according to the National Cancer Institute Common Toxicity Criteria version 2.0. Treatments were held until recovery to ≤ grade 1 toxicity for ANC < 1000/µl, platelets < 80,000/ µl, grade 3 or grade 4 non-hematologic toxicities, and grade 4 hypercholesterolemia or hypertryglyceridemia. […] A 50 % dose reduction was made for ANC < 750/µl, platelets < 50,000/µl, or grade 4 non-hematological AE. Patients were allowed two dose reductions.

mTOR = experiment: S6 ribosomal protein phosphorylation in tumor tissue by IHC (S2 versus S1); format: in vivo, human; details: ratio of median IHC staining score S2 to S1, individual patients
From the text: To quantify mTOR activity in matched S1 and S2 samples, we measured phosphorylation of S6 ribosomal protein by immunohistochemistry using two distinct phosphosite antibodies directed against Ser235/236 or Ser240/244. […] Immunohistochemistry (IHC) scoring is described in detail in Text S1.
The following antibodies were used for IHC: anti-PTEN (6H2.1, #ABM-2052, Cascade BioScience; 1:400 dilution), anti-Ki-67 (MIB-1, M7240, DakoCytomation; 1:100 Dilution), anti-phospho Ser235/236 S6 (91B2, #4857, Cell Signaling; 1:50 dilution), anti phospho Ser240/244 S6 (#2215, Cell Signaling; 1:200 dilution), anti-phospho-PRAS 40 (#44–1100G, Biosource; 1:200 dilution), anti-phospho Ser473 Akt (736E11, #3787, Cell Signaling; 1:50 dilution), anti-phospho Thr389 p70 S6 Kinase (#9205, Cell Signaling; 1:100 Dilution), and anti phospho Ser1108 eIF4G at 1:400 (#2441, Cell Signaling; 1:400 dilution). Antigen retrieval was performed using 0.01 M citrate buffer, pH 6.0 for 30 min in an oven and peroxidase activity was quenched with 3% hydrogen peroxide in water. Primary antibodies were diluted in PBS /2% bovine serum albumin/2% normal horse serum (for anti-PTEN) or TBS/0.1% Tween/5% normal goat serum (for phosphosite-specific antibodies) and applied overnight at 4 °C. Biotinylated secondary antibodies (Vector) were applied at 1:200 dilution for 45 min, and the avidin-biotin complex (Elite ABC, Vector) for 30 min. Vector NovaRed was used as the enzyme substrate to visualize specific antibody localization. […] All slides were counterstained with Harris hematoxylin.
To quantify mTOR activity, we measured phosphorylation of S6 ribosomal protein by immunohistochemistry. S6 is a direct substrate of S6 kinase 1, a downstream effector of mTOR action, and has been widely used as a pharmacodynamic readout of mTOR inhibition in preclinical studies. To ensure specificity, we used two distinct phosphosite antibodies directed against Ser235/236 or Ser240/244 (Figure 2B). Both sites are directly phosphorylated by S6 kinase 1, but Ser235/236 can also be phosphorylated by p90 ribosomal S6 kinase (RSK) and other kinases. All measurements were quantified by digital readout of 2,500–5,000 tumor cells per slide cut from paraffin-embedded tissue (Figure S1).
Supplementary file pmed.0050008.sg001.pdf: Figure S1 Digital Scoring of Immunohistochemical Stains Adjacent tissue sections from each tumor were stained with antibodies against Ki-67, phospho S6 ribosomal protein (S6RP), phospho-PRAS40, and PTEN (unpublished data). Five areas per slide, each representing approximately 500–1,000 tumor cells, were selected for digital scoring. Image conversion and scoring was performed using Soft Imaging System Software. The distribution of immunoreactivity within these 2,500–5,000 cells was graphed for each sample as a box plot. The “fold change” (F.C.) in S6 immunoreactivity (Table 2 and Figure S2) was calculated for each tumor as the ratio between median staining score in the S2 and the median staining score in the S1 sample. (135 KB PDF) Click here for additional data file.
Scoring of immunohistochemical stains. Immunohistochemical screening of tumor samples for PTEN expression was based on a manual scoring method which compares PTEN staining of tumor cells to the PTEN staining of endothelial cells within the same viewfield and assigns scores of 0 (absent in tumor cells), 1 (reduced in tumor cells relative to endothelial cells), and 2 (tumor cells staining similar to endothelial cells). Digital scores for PTEN, phospho-S6, and phospho-PRAS40 are based on absolute staining intensity of tumor cells as quantified following false-color conversion.

CO[C@H]1C[C@@H]2CC[C@@H](C)[C@@](O)(O2)C(=O)C(=O)N2CCCC[C@H]2C(=O)O[C@H]([C@H](C)C[C@@H]2CC[C@@H](O)[C@H](OC)C2)CC(=O)[C@H](C)/C=C(\C)[C@@H](O)[C@@H](OC)C(=O)[C@H](C)C[C@H](C)/C=C/C=C/C=C/1C [Rapamycin]
grade 3 or 4 toxicities ([1]; human): No grade 3 or 4 toxicities | patients with grade 3 adverse events (hypokalemia, hypercholesterolemia, and cytopenias) ([1]; human): Five of 15 | patients with grade 3 adverse events (hypokalemia, hypercholesterolemia, and cytopenias) [1]: five | perioperative bleeding complications [1]: no perioperative bleeding complications | pS6 S2/S1 pSer235/236 (mTOR; 2 mg oral daily): 0.46 and 1.01 | pS6 S2/S1 pSer240/244 (mTOR; 2 mg oral daily): 0.61 and 0.82 and 0.85 | pS6 S2/S1 pSer235/236 (mTOR; 5 mg oral daily): 0.91 and 0.48 and 0.22 and 0.77 and 1.16 | pS6 S2/S1 pSer240/244 (mTOR; 5 mg oral daily): 0.94 and 0.51 and 0.18 and 0.58 and 0.54 | pS6 S2/S1 pSer235/236 (mTOR; 10 mg oral daily): 0.78 and 0.55 and 0.19 and 0.81 and 1.50 and 0.60 | pS6 S2/S1 pSer240/244 (mTOR; 10 mg oral daily): 0.27 and 0.58 and 0.44 and 0.60 and 0.56 and 0.91
